Results as given in patent US11389453B2, “Compositions and methods for treating chemosensory dysfunction” (Cyrano Therapeutics, Inc., priority 2005, dated 2022).
“Also recorded” adds a separate entry of the source. Marks after values point to notes of the source that are not given here.

How the values were obtained:
Format in all cases: in vivo, human
TNFR 1 = TNFR 1 in nasal mucus of patients with hyposmia treated with theophylline; details: for TNFR1: nasal mucus, patients with hyposmia (19)
Description: (§1) Table 35 illustrates detection and measurement of TNFα, and soluble TNF receptors 1 and 2, moieties in the nasal mucus. TNFα, and soluble TNF receptors 1 and 2 increase in systems undergoing excessive apoptosis.
With increased smell loss pre treatment TNFR 1 levels were increased in nasal mucus in patients with Type I hyposmia (whose smell loss was increased over that of patients with Type II hyposmia). […] The greater was the smell loss, the higher was the level of TNFR 1.

TNFR 2 = TNFR 2 in nasal mucus of patients with hyposmia treated with theophylline; details: for TNFR2: nasal mucus, patients with hyposmia (18)
Method: as §1
With a dose dependent increase of theophylline treatment levels of TNFR 2 in nasal mucus decreased consistent with a dose dependent increase in smell function. Levels of TNFR 2 in patients with Type I and Type II hyposmia decreased almost 50% on 600 mg theophylline consistent with their greatest return of smell function. At this highest level of theophylline levels of TNFR 2 were decreased in relationship to the decrease in smell function-TNFR 2, Type I>Type II>Type III; smell loss, Type I>Type II>Type III.

Nitric Oxide (NO) = assay: NO in nasal mucus of patients with hyposmia before and after theophylline treatment; details: for NO: nasal mucus, patients (12)
Description: Table 33 in the examples illustrates NO in nasal mucus in patients treated with theophylline in various doses before and after drug treatment. NO levels in nasal mucus changed following the treatment of patients with smell loss. […] Its continual measurement during treatment of the disorders helps in monitoring efficacy of therapy. The detection of NO in nasal mucus provides a non invasive method of diagnosing various diseases related to human physiology and pathology. The methods of the present invention include treatment of diseases by modulating the concentrations of NO by use of drugs or agents. The method of treatment is preferably by nasal administration.
Table 33 illustrates NO levels in nasal mucus in patients treated with Theophylline in various doses before and after drug treatment. NO levels in nasal mucus changed following the treatment of patients with smell loss. […] Its continual measurement during treatment of these disorders helps in monitoring efficacy of therapy. The detection of NO in nasal mucus provides a non invasive method of diagnosing various diseases related to human physiology and pathology.

patients with hyposmia = assay: Smell function (olfactory acuity) in patients with hyposmia treated with theophylline
Description: (§2) These studies were extended to reveal levels of TNFα in nasal mucus of patients with graded loss of smell following treatment with theophylline (Table 36). Smell loss was graded such that loss was greatest in Type I hyposmia, less in Type II and still less in Type III (I>II>III). […] Following treatment which was effective in restoring smell function toward normal, levels of TNFα decreased in each patient group consistent with each increased dose of theophylline which generated a dose dependent increase in smell function—as theophylline dose increased, smell function increased and TNFα levels decreased. In Type I hyposmia TNFα decreased 40% after treatment with 400 mg theophylline and 57% after treatment 600 mg. In Type II hyposmia TNFα decreased 11% after treatment with 600 mg theophylline.

TNFα = TNFα in nasal mucus of patients with hyposmia treated with theophylline; details: for TNF∝: nasal mucus, patients with hyposmia (24)
Description: as §1, §2

TRAIL = TRAIL in nasal mucus of patients with hyposmia before and after treatment with theophylline; details: for TRAIL: nasal mucus, patients with hyposmia (5)
[1] = hyposmia Type I (7), theophylline 200 mg orally daily
[2] = hyposmia Type I (7), theophylline 600 mg orally daily
[3] = hyposmia Type II (10), theophylline 200 mg orally daily
[4] = hyposmia Type II (10), theophylline 400 mg orally daily
[5] = hyposmia Type II (10), theophylline 600 mg orally daily
[6] = hyposmia Type III (2), theophylline 600 mg orally daily
[7] = patients with hyposmia, stepwise increase in theophylline dose

## Cn1c(=O)c2[nH]cnc2n(C)c1=O [theophylline]
TNFR 1; [1]
  TNFR 1 in nasal mucus: 6,521 ± 1,304^c
TNFR 1; hyposmia Type I (7), theophylline 400 mg orally daily
  TNFR 1 in nasal mucus: 1,498
TNFR 1; [2]
  TNFR 1 in nasal mucus: 1,832 ± 704^a
TNFR 1; [3]
  TNFR 1 in nasal mucus: 1,462 ± 371 ^
TNFR 1; [4]
  TNFR 1 in nasal mucus: 1,087 ± 335
TNFR 1; [5]
  TNFR 1 in nasal mucus: 862 ± 335
TNFR 1; [6]
  TNFR 1 in nasal mucus: 585 ± 335
TNFR 1; Theophylline treatment 200
  TNFR1: 3,148 ± 663
TNFR 1; Theophylline treatment 400
  TNFR1: 1,146 ± 220^b
TNFR 1; Theophylline treatment 600
  TNFR1: 1,220 ± 286^ab
TNFR 1; [7]
  TNFR 1 in nasal mucus, change after treatment: significant dose-response decrease; also recorded: TNFR 1 levels decreased in Type I
TNFR 2; Type I and Type II hyposmia, 600 mg theophylline
  TNFR 2 decrease in nasal mucus: ~50%
TNFR 2; [1]
  TNFR2 in nasal mucus: 3,100 ± 1,184
TNFR 2; [2]
  TNFR2 in nasal mucus: 1,491 ± 1,102
TNFR 2; [3]
  TNFR2 in nasal mucus: 1,378 ± 480^
TNFR 2; [4]
  TNFR2 in nasal mucus: 1,014 ± 272
TNFR 2; [5]
  TNFR2 in nasal mucus: 553 ± 158
TNFR 2; [6]
  TNFR2 in nasal mucus: 436 ± 443
TNFR 2; Theophylline treatment 200
  TNFR2: 1,952 ± 339
TNFR 2; Theophylline treatment 400
  TNFR2: 949 ± 180^c
TNFR 2; Theophylline treatment 600
  TNFR2: 916 ± 344
TNFR 2; [7]
  TNFR 2 in nasal mucus, change after treatment: significant dose-response decrease; also recorded: decreased
Nitric Oxide (NO); Theophylline 200 mg
  NO: 0.25 ± 0.01 µg/mL
Nitric Oxide (NO); Theophylline 400 mg
  NO: 0.40 ± 0.06 µg/mL
Nitric Oxide (NO); Theophylline 600 mg
  NO: 0.59 ± 0.16 µg/mL
Nitric Oxide (NO); patients with hyposmia, theophylline in graded doses
  NO in nasal mucus, change after treatment: increases in nasal mucus NO
Patients with hyposmia; 600 mg theophylline
  smell function: restored smell function to or toward normal
Patients with hyposmia; theophylline at various (graded) doses
  smell function: returned smell function to normal in a dose-dependent manner; also recorded: graded increases in smell function; also recorded: stepwise improvement in olfactory acuity
TNFα; Type I hyposmia, 400 mg theophylline
  TNFα decrease in nasal mucus: 40%
TNFα; Type I hyposmia, 600 mg theophylline
  TNFα decrease in nasal mucus: 57%
TNFα; Type II hyposmia, 600 mg theophylline
  TNFα decrease in nasal mucus: 11%
TNFα; hyposmia Type I (8), theophylline 400 mg orally daily
  TNF∝ in nasal mucus: 15.6
TNFα; hyposmia Type I (8), theophylline 600 mg orally daily
  TNF∝ in nasal mucus: 11.2 ± 4.4^
TNFα; hyposmia Type II (13), theophylline 200 mg orally daily
  TNF∝ in nasal mucus: 14.9 ± 2.5
TNFα; hyposmia Type II (13), theophylline 400 mg orally daily
  TNF∝ in nasal mucus: 11.5 ± 3.2
TNFα; hyposmia Type II (13), theophylline 600 mg orally daily
  TNF∝ in nasal mucus: 4.3 ± 0.8^a
TNFα; hyposmia Type III (3), theophylline 600 mg orally daily
  TNF∝ in nasal mucus: 1.2 ± 0.7^bc
TNFα; Theophylline treatment 200
  TNF∝: 20.0 ± 2.8 µg/mL
TNFα; Theophylline treatment 400
  TNF∝: 12.1 ± 2.1 µg/mL
TNFα; Theophylline treatment 600
  TNF∝: 7.4 ± 1.8 µg/mL
TNFα; [7]
  TNFα in nasal mucus, change after treatment: significant dose-response decrease
TRAIL; theophylline 200 mg
  TRAIL: 855 µg/mL
TRAIL; theophylline 400 mg
  TRAIL: 791 µg/mL
TRAIL; theophylline 600 mg
  TRAIL: 247 µg/mL
TRAIL; patients with hyposmia, before vs after theophylline at various doses
  TRAIL in nasal mucus, change after treatment: dose-dependent decrease
